Assay results taken from patent US11231416B2, “Virus-like particle (VLP) based small molecule-protein interaction trap” (VIB VZW, priority 2015, dated 2022).
Where two headings read alike, the source gives them in different places.

Columns and labels:
CALU = target: T1, CALU (Homo sapiens, UniProt O43852); test: Viral trapping in VLPs, MS analysis; type: binding; conditions: all proteins (incl. low confidence identifications)
T1 construct: endogenous in cells; host or cells: HEK293T
Procedure: (§1) For mass spectrometry, 10^7 HEK293T cells were seeded in five flasks (75 cm^2) and transfected the next day with a total of 15 μg DNA per flask using polyethylene imine reagent. The following DNA quantities were used per flask: 7.5 μg of GAG-eDHFR, 5.4 μg of mock vector and 2.1 μg of a 50/50 mix of pMD2.G and pcDNA3-FLAG-VSV-G. The small molecule fusions were added immediately after transfection to the producing cells at a concentration of 1 μM. The same dilution of dimethyl sulfoxide (DMSO) was added in control experiments to control the effect of this chemical on the cells. The cellular supernatant was harvested after 32 hours and was centrifuged for 3 minutes at 450×g to remove cellular debris. The cleared supernatant was then filtered using 0.45 μm filters (Millipore). A total of 100 μl MyOne™ Streptavidin T1 beads (Life Technologies) pre-loaded with 10 μg ANTI-FLAG® BioM2-Biotin antibody (Sigma-Aldrich®) was used to bind the tagged particles. Particles were allowed to bind for 2 hours by end-over-end rotation. The total supernatant was processed in three consecutive binding steps. Bead-particle complexes were washed once with washing buffer (TWB: 20 mM Tris-HCl pH 7.5, 150 mM NaCl) and were then eluted with FLAG peptide (200 μg/ml in TWB) and lysed by addition of SDS to a final concentration of 0.1%. After 5 minutes, SDS was removed using HiPPR Detergent Removal Spin Columns (Pierce, Thermo Scientific) followed by boiling and overnight digestion with 0.5 μg sequence-grade trypsin (Promega). After acidification (0.1% TFA final), the peptides were separated by nano-LC and directly analyzed with a Q Exactive instrument (Thermo Scientific).
(§2) For tamoxifen, four biological repeats were performed where the cells were treated with MTX-PEG6-tamoxifen after transfection. The obtained protein lists after viral trapping and MS analysis were challenged with protein lists coming from the four DMSO controls, the 19 control experiments and the lists obtained for the MTX-PEG6-simvastatin and MTX-PEG6-reversine (see below) for a total of 30 samples.

DCAKD = target: T2, DCAKD (Homo sapiens, UniProt Q8WVC6); test: Viral trapping in VLPs, MS analysis; type: binding; conditions: all proteins (incl. low confidence identifications)
T2 construct: endogenous in cells; host or cells: HEK293T
Procedure: as §1, §2

DNAJB12 = target: T3, DNAJB12 (Homo sapiens, UniProt Q9NXW2); test: Viral trapping in VLPs, MS analysis; type: binding; conditions: all proteins (incl. low confidence identifications)
T3 construct: endogenous in cells; host or cells: HEK293T
Procedure: as §1, §2

ECE1 = target: T4, ECE1 (Homo sapiens, UniProt P42892); test: Viral trapping in VLPs, MS analysis; type: binding
T4 construct: endogenous in cells; host or cells: HEK293T
Procedure: as §1, §2

EPHX1 = target: T5, EPHX1 (Homo sapiens, UniProt P07099); test: Viral trapping in VLPs, MS analysis; type: binding; conditions: all proteins (incl. low confidence identifications)
T5 construct: endogenous in cells; host or cells: HEK293T
Procedure: as §1, §2

GRAMD4 = target: T6, GRAMD4 (Homo sapiens, UniProt Q6IC98); test: Viral trapping in VLPs, MS analysis; type: binding; conditions: all proteins (incl. low confidence identifications)
T6 construct: endogenous in cells; host or cells: HEK293T
Procedure: as §1, §2

HSD17B12 = target: T7, HSD17B12 (Homo sapiens, UniProt Q53GQ0); test: Viral trapping in VLPs, MS analysis; type: binding; conditions: all proteins (incl. low confidence identifications)
T7 construct: endogenous in cells; host or cells: HEK293T
Procedure: as §1, §2

HSD17B4 = target: T8, HSD17B4 (Homo sapiens, UniProt P51659); test: Viral trapping in VLPs, MS analysis; type: binding
T8 construct: endogenous in cells; host or cells: HEK293T
T8 sequence (P51659 1-736): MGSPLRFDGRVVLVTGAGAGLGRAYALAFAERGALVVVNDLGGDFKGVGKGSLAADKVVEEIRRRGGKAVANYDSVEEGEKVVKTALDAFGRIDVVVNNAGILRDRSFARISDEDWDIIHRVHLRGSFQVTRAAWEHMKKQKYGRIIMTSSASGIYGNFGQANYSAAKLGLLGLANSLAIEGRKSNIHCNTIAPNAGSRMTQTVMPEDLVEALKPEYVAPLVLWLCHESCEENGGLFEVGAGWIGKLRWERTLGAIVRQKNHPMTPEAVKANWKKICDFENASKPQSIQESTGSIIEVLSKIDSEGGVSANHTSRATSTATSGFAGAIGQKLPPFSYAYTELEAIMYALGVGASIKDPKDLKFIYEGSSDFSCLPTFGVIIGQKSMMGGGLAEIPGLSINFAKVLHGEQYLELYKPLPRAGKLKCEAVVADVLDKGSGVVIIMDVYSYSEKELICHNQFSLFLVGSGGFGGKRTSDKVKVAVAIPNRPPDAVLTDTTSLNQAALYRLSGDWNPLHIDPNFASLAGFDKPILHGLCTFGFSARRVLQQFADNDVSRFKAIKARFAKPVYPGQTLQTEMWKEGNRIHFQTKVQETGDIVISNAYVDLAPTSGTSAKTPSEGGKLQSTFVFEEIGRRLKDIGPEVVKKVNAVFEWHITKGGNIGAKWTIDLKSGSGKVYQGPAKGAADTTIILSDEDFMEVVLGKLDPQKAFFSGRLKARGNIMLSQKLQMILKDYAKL
Procedure: as §1, §2

MDH2 = target: T9, MDH2 (Homo sapiens, UniProt P40926); test: Viral trapping in VLPs, MS analysis; type: binding
T9 construct: endogenous in cells; host or cells: HEK293T
Procedure: as §1, §2

NCS1 = target: T10, NCS1 (Homo sapiens, UniProt P62166); test: Viral trapping in VLPs, MS analysis; type: binding; conditions: all proteins (incl. low confidence identifications)
T10 construct: endogenous in cells; host or cells: HEK293T
Procedure: as §1, §2

PTPLAD1 = target: T11, PTPLAD1 (Homo sapiens, UniProt Q9P035); test: Viral trapping in VLPs, MS analysis; type: binding; conditions: all proteins (incl. low confidence identifications)
T11 construct: endogenous in cells; host or cells: HEK293T
Procedure: as §1, §2

REEP4 = target: T12, REEP4 (Homo sapiens, UniProt Q9H6H4); test: Viral trapping in VLPs, MS analysis; type: binding
T12 construct: endogenous in cells; host or cells: HEK293T
Procedure: as §1, §2

RNF5 = target: T13, RNF5 (Homo sapiens, UniProt Q99942); test: Viral trapping in VLPs, MS analysis; type: binding; conditions: all proteins (incl. low confidence identifications)
T13 construct: endogenous in cells; host or cells: HEK293T
Procedure: as §1, §2

RTN4 = target: T14, RTN4 (Homo sapiens, UniProt Q9NQC3); test: Viral trapping in VLPs, MS analysis; type: binding
T14 construct: endogenous in cells; host or cells: HEK293T
Procedure: as §1, §2

SEC61B = target: T15, SEC61B (Homo sapiens, UniProt P60468); test: Viral trapping in VLPs, MS analysis; type: binding; conditions: all proteins (incl. low confidence identifications)
T15 construct: endogenous in cells; host or cells: HEK293T
Procedure: as §1, §2

SREBF2 = target: T16, SREBF2 (Homo sapiens, UniProt Q12772); test: Viral trapping in VLPs, MS analysis; type: binding; conditions: all proteins (incl. low confidence identifications)
T16 construct: endogenous in cells; host or cells: HEK293T
Procedure: as §1, §2

TAOK2 = target: T17, TAOK2 (Homo sapiens, UniProt Q9UL54); test: Viral trapping in VLPs, MS analysis; type: binding; conditions: all proteins (incl. low confidence identifications)
T17 construct: endogenous in cells; host or cells: HEK293T
Procedure: as §1, §2

WDR36 = target: T18, WDR36 (Homo sapiens, UniProt Q8NI36); test: Viral trapping in VLPs, MS analysis; type: binding; conditions: all proteins (incl. low confidence identifications)
T18 construct: endogenous in cells; host or cells: HEK293T
Procedure: as §1, §2

C28H10ORF35 = conditions: all proteins (incl. low confidence identifications)
Procedure: as §1, §2

FAM62A = tested on: FAM62A
Procedure: as §1, §2

PRSS3 = conditions: all proteins (incl. low confidence identifications)
Procedure: as §1, §2

[1] = all proteins (incl. low confidence identifications)
[2] = proteins identified with >1 peptide (high confidence)

T9 sequence (P40926 25-338): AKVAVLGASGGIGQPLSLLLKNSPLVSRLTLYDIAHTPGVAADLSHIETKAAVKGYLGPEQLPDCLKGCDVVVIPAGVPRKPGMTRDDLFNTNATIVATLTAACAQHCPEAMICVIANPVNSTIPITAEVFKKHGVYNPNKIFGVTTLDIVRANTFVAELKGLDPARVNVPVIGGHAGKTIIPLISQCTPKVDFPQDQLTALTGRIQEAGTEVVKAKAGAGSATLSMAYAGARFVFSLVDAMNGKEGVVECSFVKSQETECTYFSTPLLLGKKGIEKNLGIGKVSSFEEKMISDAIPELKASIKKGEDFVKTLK
T4 sequence (P42892 whole entry): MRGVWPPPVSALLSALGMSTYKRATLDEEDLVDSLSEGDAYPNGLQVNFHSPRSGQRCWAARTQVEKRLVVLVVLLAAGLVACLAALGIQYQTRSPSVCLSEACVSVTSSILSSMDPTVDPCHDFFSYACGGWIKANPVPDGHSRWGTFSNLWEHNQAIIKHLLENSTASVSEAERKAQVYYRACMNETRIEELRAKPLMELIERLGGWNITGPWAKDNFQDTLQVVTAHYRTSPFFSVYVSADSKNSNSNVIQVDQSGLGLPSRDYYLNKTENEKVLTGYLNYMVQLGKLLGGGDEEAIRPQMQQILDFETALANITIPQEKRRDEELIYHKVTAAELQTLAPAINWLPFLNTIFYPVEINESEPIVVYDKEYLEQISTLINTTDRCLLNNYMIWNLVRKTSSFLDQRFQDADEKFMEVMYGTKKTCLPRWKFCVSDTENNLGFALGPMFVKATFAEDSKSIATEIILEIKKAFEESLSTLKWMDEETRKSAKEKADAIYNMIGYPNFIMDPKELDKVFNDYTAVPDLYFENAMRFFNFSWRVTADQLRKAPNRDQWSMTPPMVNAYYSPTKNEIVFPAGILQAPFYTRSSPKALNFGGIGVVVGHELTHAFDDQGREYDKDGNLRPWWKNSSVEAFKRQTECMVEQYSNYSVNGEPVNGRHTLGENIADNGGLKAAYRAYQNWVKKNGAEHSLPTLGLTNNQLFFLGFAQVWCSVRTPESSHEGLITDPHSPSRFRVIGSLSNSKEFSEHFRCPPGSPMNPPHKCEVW
T14 sequence (Q9NQC3 whole entry): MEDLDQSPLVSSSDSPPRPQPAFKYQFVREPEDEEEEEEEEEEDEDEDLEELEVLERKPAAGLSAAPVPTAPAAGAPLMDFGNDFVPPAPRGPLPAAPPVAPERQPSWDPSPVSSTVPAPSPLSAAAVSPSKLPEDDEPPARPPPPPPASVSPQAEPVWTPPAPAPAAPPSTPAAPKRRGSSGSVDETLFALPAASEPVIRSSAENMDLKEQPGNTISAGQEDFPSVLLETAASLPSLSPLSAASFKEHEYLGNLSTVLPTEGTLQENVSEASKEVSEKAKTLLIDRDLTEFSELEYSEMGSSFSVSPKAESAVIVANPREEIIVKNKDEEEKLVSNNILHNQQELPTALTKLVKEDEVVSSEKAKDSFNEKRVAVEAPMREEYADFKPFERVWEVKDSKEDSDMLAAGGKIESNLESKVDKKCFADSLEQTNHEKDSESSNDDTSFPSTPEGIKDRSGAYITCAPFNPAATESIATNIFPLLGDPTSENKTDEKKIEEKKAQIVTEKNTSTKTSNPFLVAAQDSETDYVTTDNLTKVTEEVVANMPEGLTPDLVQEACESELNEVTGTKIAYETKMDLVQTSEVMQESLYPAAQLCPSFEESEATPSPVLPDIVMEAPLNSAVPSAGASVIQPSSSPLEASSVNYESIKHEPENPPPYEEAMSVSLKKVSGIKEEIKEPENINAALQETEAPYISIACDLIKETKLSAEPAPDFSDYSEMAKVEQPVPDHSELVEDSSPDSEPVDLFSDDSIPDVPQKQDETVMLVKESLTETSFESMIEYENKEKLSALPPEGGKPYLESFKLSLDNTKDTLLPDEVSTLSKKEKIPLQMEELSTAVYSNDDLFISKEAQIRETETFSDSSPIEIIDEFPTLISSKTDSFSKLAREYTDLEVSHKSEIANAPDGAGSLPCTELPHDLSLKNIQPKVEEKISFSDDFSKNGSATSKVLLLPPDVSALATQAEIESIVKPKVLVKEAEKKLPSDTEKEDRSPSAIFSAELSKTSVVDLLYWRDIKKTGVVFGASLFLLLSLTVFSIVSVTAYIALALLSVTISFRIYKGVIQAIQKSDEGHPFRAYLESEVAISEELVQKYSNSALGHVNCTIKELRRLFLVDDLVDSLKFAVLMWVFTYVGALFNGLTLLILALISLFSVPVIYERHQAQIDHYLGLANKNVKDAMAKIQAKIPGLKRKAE
T12 sequence (Q9H6H4 whole entry): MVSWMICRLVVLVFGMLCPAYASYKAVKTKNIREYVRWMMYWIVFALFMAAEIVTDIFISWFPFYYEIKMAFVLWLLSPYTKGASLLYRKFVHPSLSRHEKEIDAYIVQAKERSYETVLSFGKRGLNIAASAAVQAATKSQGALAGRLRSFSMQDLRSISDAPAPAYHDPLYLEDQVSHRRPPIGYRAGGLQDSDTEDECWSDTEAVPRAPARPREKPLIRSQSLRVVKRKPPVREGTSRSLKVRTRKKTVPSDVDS
T13 sequence (Q99942 whole entry): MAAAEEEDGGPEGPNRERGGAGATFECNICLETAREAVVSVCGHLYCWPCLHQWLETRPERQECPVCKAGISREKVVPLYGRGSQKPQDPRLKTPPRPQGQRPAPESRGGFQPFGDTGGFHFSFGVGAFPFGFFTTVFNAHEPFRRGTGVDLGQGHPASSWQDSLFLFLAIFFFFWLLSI
T3 sequence (Q9NXW2 whole entry): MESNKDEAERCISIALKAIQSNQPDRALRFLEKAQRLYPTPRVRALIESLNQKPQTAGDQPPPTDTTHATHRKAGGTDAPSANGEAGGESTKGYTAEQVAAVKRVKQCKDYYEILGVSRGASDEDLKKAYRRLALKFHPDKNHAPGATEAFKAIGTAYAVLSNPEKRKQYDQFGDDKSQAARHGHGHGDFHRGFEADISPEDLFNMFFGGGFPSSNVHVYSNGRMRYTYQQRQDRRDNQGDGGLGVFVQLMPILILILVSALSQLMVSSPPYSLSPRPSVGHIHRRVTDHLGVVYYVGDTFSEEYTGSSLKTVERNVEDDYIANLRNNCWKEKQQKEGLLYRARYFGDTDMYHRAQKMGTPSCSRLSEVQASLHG
T18 sequence (Q8NI36 whole entry): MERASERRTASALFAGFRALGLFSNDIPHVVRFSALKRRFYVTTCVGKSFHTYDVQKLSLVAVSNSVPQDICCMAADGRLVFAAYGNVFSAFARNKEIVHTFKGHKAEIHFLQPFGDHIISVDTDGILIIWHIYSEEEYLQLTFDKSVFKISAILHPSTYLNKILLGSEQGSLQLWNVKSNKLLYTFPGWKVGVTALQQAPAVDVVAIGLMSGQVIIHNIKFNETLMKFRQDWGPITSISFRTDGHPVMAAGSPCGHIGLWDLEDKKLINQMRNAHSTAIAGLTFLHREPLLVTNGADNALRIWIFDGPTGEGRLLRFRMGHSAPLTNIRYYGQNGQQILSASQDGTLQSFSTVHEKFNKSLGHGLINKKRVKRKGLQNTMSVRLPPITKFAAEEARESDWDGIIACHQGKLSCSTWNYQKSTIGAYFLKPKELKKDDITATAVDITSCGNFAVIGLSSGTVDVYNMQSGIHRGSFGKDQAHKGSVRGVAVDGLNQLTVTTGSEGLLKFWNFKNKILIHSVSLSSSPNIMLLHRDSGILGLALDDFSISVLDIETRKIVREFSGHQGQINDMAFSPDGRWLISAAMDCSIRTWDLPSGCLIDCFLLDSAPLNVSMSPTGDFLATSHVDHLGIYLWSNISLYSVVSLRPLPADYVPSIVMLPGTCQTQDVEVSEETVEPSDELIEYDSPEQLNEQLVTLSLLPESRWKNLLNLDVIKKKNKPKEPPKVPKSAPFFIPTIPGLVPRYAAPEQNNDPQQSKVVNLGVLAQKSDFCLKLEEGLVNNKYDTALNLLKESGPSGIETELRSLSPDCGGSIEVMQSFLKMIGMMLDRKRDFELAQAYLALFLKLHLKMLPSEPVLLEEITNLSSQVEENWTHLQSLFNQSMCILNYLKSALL
T1 sequence (O43852 20-315): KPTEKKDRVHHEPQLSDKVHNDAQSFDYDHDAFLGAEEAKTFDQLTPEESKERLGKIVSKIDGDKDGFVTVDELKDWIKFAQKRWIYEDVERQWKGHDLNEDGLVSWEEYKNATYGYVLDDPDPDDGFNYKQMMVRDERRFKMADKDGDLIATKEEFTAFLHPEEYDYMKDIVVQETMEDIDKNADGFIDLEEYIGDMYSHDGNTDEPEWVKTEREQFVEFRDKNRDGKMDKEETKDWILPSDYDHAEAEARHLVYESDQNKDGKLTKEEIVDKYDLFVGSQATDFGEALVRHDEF
T5 sequence (P07099 whole entry): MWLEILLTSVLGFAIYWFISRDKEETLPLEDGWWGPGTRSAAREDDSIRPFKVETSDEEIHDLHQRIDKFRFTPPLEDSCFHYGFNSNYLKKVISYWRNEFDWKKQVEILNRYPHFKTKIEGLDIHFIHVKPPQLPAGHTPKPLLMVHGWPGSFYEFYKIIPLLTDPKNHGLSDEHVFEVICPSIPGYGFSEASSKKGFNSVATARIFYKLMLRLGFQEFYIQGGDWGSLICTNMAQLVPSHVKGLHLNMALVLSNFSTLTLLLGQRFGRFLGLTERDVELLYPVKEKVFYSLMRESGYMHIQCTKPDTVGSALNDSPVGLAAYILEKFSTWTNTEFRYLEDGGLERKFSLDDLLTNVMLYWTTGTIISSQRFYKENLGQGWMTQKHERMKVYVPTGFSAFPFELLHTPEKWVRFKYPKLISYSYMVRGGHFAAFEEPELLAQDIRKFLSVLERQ
T2 sequence (Q8WVC6 whole entry): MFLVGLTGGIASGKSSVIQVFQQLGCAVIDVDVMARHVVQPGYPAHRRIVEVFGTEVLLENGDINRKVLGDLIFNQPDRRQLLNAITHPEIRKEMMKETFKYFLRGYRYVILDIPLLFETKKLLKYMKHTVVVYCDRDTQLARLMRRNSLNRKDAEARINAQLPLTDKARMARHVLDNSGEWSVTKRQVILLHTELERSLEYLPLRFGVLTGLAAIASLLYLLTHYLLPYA

With `CCC(=C(c1ccccc1)c1ccc(OCCN(C)Cc2cn(CCOCCOCCOCCOCCOCCNC(=O)CCC(NC(=O)c3ccc(N(C)Cc4cnc5nc(N)nc(N)c5n4)cc3)C(=O)O)nn2)cc1)c1ccccc1` (stereo not drawn) [MTX-PEG6-tamoxifen] the “Recurrence (x/4)” value (CALU) was 1 x/4, the “Recurrence (x/4)” value (DCAKD) was 2 x/4 and the “Recurrence (x/4)” value (DNAJB12) was 1 x/4. The “Recurrence (x/4)” value (ECE1; [1]) was 1 x/4, the “Recurrence (x/4)” value (ECE1; [2]) was 1 x/4 and the “Recurrence (x/4)” value (EPHX1) was 1 x/4. The “Recurrence (x/4)” value (GRAMD4) was 1 x/4, the “Recurrence (x/4)” value (HSD17B12) was 1 x/4 and the “Recurrence (x/4)” value (HSD17B4; [1]) was 4 x/4. For the same compound, the “Recurrence (x/4)” value (HSD17B4; [2]) was 4 x/4, the “Recurrence (x/4)” value (MDH2; [1]) was 1 x/4 and the “Recurrence (x/4)” value (MDH2; [2]) was 1 x/4. The “Recurrence (x/4)” value (NCS1) was 1 x/4, the “Recurrence (x/4)” value (PTPLAD1) was 1 x/4 and the “Recurrence (x/4)” value (REEP4; [1]) was 2 x/4. For the same compound, the “Recurrence (x/4)” value (REEP4; [2]) was 2 x/4, the “Recurrence (x/4)” value (RNF5) was 3 x/4 and the “Recurrence (x/4)” value (RTN4; [1]) was 1 x/4. For the same compound, the “Recurrence (x/4)” value (RTN4; [2]) was 1 x/4, the “Recurrence (x/4)” value (SEC61B) was 1 x/4 and the “Recurrence (x/4)” value (SREBF2) was 1 x/4. For the same compound, the “Recurrence (x/4)” value (TAOK2) was 1 x/4, the “Recurrence (x/4)” value (WDR36) was 1 x/4 and the “Recurrence (x/4)” value (C28H10ORF35) was 1 x/4. For the same compound, the “Recurrence (x/4)” value (FAM62A; [1]) was 1 x/4, the “Recurrence (x/4)” value (FAM62A; [2]) was 1 x/4 and the “Recurrence (x/4)” value (PRSS3) was 1 x/4.
